Values of other authors as cited in patent publication EP4659595A1, “NICOTINE-POLYMER COMPLEX COMPRISING MULTIPLE NICOTINE FORMS” (Nicoventures Trading Limited, priority 2024, dated 2025).

Key:
[1] = fats, alcohols, water
[2] = when isolated; converts via isomerization into trans-bixin (β-bixin)
[3] = partition coefficient between octanol and water; source of values not stated

Compound | solubility [1] | chemical stability [2] | logP [3]
CC(/C=C/C=C(C)/C=C/C(=O)O)=C\C=C\C=C(C)\C=C\C=C(C)\C=C\C(=O)O (stereo in doubt) [norbixin, (2E,4E,6E,8E,10E,12E,14E,16E,18E)-4,8,13,17-tetramethylicosa-2,4,6,8,10,12,14,16,18-nonaenedioic acid] | water soluble | – | –
COC(=O)/C=C/C(C)=C\C=C\C(C)=C\C=C\C=C(C)\C=C\C=C(C)\C=C\C(=O)O [bixin, (2E,4E,6E,8E,10E,12E,14E,16Z,18E)-20-methoxy-4,8,13,17-tetramethyl-20-oxoicosa-2,4,6,8,10,12,14,16,18-nonaenoic acid] | soluble in fats and alcohols but insoluble in water | chemically unstable when isolated | –
CC(C)[C@@H]1CC[C@@H](C)C[C@H]1OC(=O)CCC(=O)O [monomenthyl succinate] | – | – | 3
ethyl benzoic acid | – | – | 2.9
isopropyl benzoic acid | – | – | 3.5
tocopherol succinate | – | – | 10.2
